Data reported in the supplement of paper PMC10307832.

How the values were obtained:
Assay in all cases: relative viability (nuclei count vs DMSO), 5 days (fraction); higher = more cells survive
[1] = system: NCI-H441
How it was run: (§1)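 Values are medians from duplicate plates. Each reflects relative viability, defined as the nuclei count of treated wells over that of vehicle wells. Lung cancer cell lines in 1536-well plates were pin-tool dosed one day after seeding with one drug alone or with a fixed anchor-drug dose plus five library-drug doses (not always all listed) in √10 steps, then fixed, stained and imaged at 4× after 5 days.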

[2] = system: NCI-H2405
How it was run: as §1

[3] = system: NCI-H1437
How it was run: as §1

[4] = system: NCI-H2087
How it was run: as §1

[5] = system: ChaGo-K-1
How it was run: as §1

[6] = system: NCI-H2347
How it was run: as §1

[7] = system: NCI-H3122
How it was run: as §1

[8] = system: NCI-H520
How it was run: as §1

[9] = system: NCI-H23
How it was run: as §1

[10] = system: NCI-H2009
How it was run: as §1

[11] = system: EKVX
How it was run: as §1

[12] = system: NCI-H322M
How it was run: as §1

[13] = system: NCI-H358
How it was run: as §1

[14] = system: NCI-H1755
How it was run: as §1

[15] = system: BEN
How it was run: as §1

[16] = system: NCI-H1666
How it was run: as §1

[17] = system: NCI-H2126
How it was run: as §1

[18] = system: H3255
How it was run: as §1

[19] = system: SK-LU-1
How it was run: as §1

[20] = system: A-427
How it was run: as §1

[21] = system: UMC-11
How it was run: as §1

[22] = system: NCI-H1650
How it was run: as §1

[23] = system: NCI-H727
How it was run: as §1

Work on `C=C1C(=O)O[C@@H](CCCCCCCC)[C@@H]1C(=O)O` [C-75] + Cc1nc(Nc2ncc(C(=O)Nc3c(C)cccc3Cl)s2)cc(N2CCN(CCO)CC2)n1 [Dasatinib] (partner 0.075 µM) yielded a relative viability ([1]; first compound 0.08 µM) of 0.545, a relative viability ([1]; first compound 0.253 µM) of 0.916 and a relative viability ([1]; first compound 0.8 µM) of 0.723. It also gave a relative viability ([1]; first compound 2.53 µM) of 0.463, a relative viability ([1]; first compound 8 µM) of 0.594 and a relative viability ([2]; first compound 0.08 µM) of 0.196. It also gave a relative viability ([2]; first compound 0.253 µM) of 0.191, a relative viability ([2]; first compound 0.8 µM) of 0.188 and a relative viability ([2]; first compound 2.53 µM) of 0.216. For the same molecule, the relative viability ([2]; first compound 8 µM) was 0.22, the relative viability ([3]; first compound 0.08 µM) was 0.4 and the relative viability ([3]; first compound 0.253 µM) was 0.381. For the same molecule, the relative viability ([3]; first compound 0.8 µM) was 0.367, the relative viability ([3]; first compound 2.53 µM) was 0.298 and the relative viability ([3]; first compound 8 µM) was 0.458. It also gave a relative viability ([4]; first compound 0.08 µM) of 0.88, a relative viability ([4]; first compound 0.253 µM) of 1.06 and a relative viability ([4]; first compound 0.8 µM) of 0.66. The relative viability ([4]; first compound 2.53 µM) was 0.829, the relative viability ([4]; first compound 8 µM) was 0.865 and the relative viability ([5]; first compound 0.08 µM) was 0.675. For the same molecule, the relative viability ([5]; first compound 0.253 µM) was 0.463, the relative viability ([5]; first compound 0.8 µM) was 0.567 and the relative viability ([5]; first compound 2.53 µM) was 0.393. The relative viability ([5]; first compound 8 µM) was 0.593, the relative viability ([6]; first compound 0.08 µM) was 0.367 and the relative viability ([6]; first compound 0.253 µM) was 0.448. It also gave a relative viability ([6]; first compound 0.8 µM) of 0.25, a relative viability ([6]; first compound 8 µM) of 0.32 and a relative viability ([7]; first compound 0.08 µM) of 0.832. For the same molecule, the relative viability ([7]; first compound 0.253 µM) was 0.798, the relative viability ([7]; first compound 0.8 µM) was 0.583 and the relative viability ([7]; first compound 2.53 µM) was 0.594. For the same molecule, the relative viability ([7]; first compound 8 µM) was 0.742, the relative viability ([8]; first compound 0.08 µM) was 0.188 and the relative viability ([8]; first compound 0.253 µM) was 0.206. The relative viability ([8]; first compound 0.8 µM) was 0.206, the relative viability ([8]; first compound 2.53 µM) was 0.182 and the relative viability ([8]; first compound 8 µM) was 0.179. It also gave a relative viability ([9]; first compound 0.08 µM) of 0.81, a relative viability ([9]; first compound 0.253 µM) of 0.756 and a relative viability ([9]; first compound 0.8 µM) of 0.718. For the same molecule, the relative viability ([9]; first compound 2.53 µM) was 0.443, the relative viability ([9]; first compound 8 µM) was 0.586 and the relative viability ([10]; first compound 0.08 µM) was 0.303. It also gave a relative viability ([10]; first compound 0.253 µM) of 0.219, a relative viability ([10]; first compound 0.8 µM) of 0.281 and a relative viability ([10]; first compound 2.53 µM) of 0.228. The relative viability ([10]; first compound 8 µM) was 0.203, the relative viability ([11]; first compound 0.08 µM) was 0.535 and the relative viability ([11]; first compound 0.253 µM) was 0.584. For the same molecule, the relative viability ([11]; first compound 0.8 µM) was 0.564, the relative viability ([11]; first compound 8 µM) was 0.481 and the relative viability ([12]; first compound 0.08 µM) was 0.241. It also gave a relative viability ([12]; first compound 0.253 µM) of 0.244, a relative viability ([12]; first compound 0.8 µM) of 0.272 and a relative viability ([12]; first compound 2.53 µM) of 0.198. For the same molecule, the relative viability ([12]; first compound 8 µM) was 0.313, the relative viability ([13]; first compound 0.08 µM) was 0.181 and the relative viability ([13]; first compound 0.253 µM) was 0.13. For the same molecule, the relative viability ([13]; first compound 0.8 µM) was 0.157, the relative viability ([13]; first compound 2.53 µM) was 0.151 and the relative viability ([13]; first compound 8 µM) was 0.143. It also gave a relative viability ([14]; first compound 0.08 µM) of 0.42, a relative viability ([14]; first compound 0.253 µM) of 0.33 and a relative viability ([14]; first compound 0.8 µM) of 0.404. It also gave a relative viability ([14]; first compound 2.53 µM) of 0.259, a relative viability ([14]; first compound 8 µM) of 0.43 and a relative viability ([15]; first compound 0.08 µM) of 0.317. The relative viability ([15]; first compound 0.253 µM) was 0.271, the relative viability ([15]; first compound 0.8 µM) was 0.326 and the relative viability ([15]; first compound 8 µM) was 0.288. For the same molecule, the relative viability ([16]; first compound 0.08 µM) was 0.836, the relative viability ([16]; first compound 0.253 µM) was 0.779 and the relative viability ([16]; first compound 0.8 µM) was 0.74. The relative viability ([16]; first compound 2.53 µM) was 0.719, the relative viability ([16]; first compound 8 µM) was 0.711 and the relative viability ([17]; first compound 0.08 µM) was 0.665. The relative viability ([17]; first compound 0.253 µM) was 0.657, the relative viability ([17]; first compound 0.8 µM) was 0.576 and the relative viability ([17]; first compound 2.53 µM) was 0.448. For the same molecule, the relative viability ([17]; first compound 8 µM) was 0.586, the relative viability ([18]; first compound 0.08 µM) was 0.382 and the relative viability ([18]; first compound 0.253 µM) was 0.371. It also gave a relative viability ([18]; first compound 0.8 µM) of 0.337, a relative viability ([18]; first compound 2.53 µM) of 0.327 and a relative viability ([18]; first compound 8 µM) of 0.437. It also gave a relative viability ([19]; first compound 0.08 µM) of 0.168, a relative viability ([19]; first compound 0.253 µM) of 0.175 and a relative viability ([19]; first compound 0.8 µM) of 0.166. The relative viability ([19]; first compound 2.53 µM) was 0.127, the relative viability ([19]; first compound 8 µM) was 0.172 and the relative viability ([20]; first compound 0.08 µM) was 0.689. It also gave a relative viability ([20]; first compound 0.253 µM) of 0.661, a relative viability ([20]; first compound 0.8 µM) of 0.645 and a relative viability ([20]; first compound 2.53 µM) of 0.605. It also gave a relative viability ([20]; first compound 8 µM) of 0.658, a relative viability ([21]; first compound 0.08 µM) of 0.43 and a relative viability ([21]; first compound 0.253 µM) of 0.547. It also gave a relative viability ([21]; first compound 0.8 µM) of 0.389, a relative viability ([21]; first compound 2.53 µM) of 0.433 and a relative viability ([21]; first compound 8 µM) of 0.376. For the same molecule, the relative viability ([22]; first compound 0.08 µM) was 0.334, the relative viability ([22]; first compound 0.253 µM) was 0.359 and the relative viability ([22]; first compound 2.53 µM) was 0.31. For the same molecule, the relative viability ([22]; first compound 8 µM) was 0.305, the relative viability ([23]; first compound 0.08 µM) was 0.406 and the relative viability ([23]; first compound 0.253 µM) was 0.494. The relative viability ([23]; first compound 0.8 µM) was 0.417 and the relative viability ([23]; first compound 8 µM) was 0.305.
